Results reported in ChEMBL document CHEMBL1909046, “DrugMatrix in vitro pharmacology data”.

Assays:
[1] = biological target: Substance-P receptor (Homo sapiens, UniProt P25103); assay type: cell membranes, Membrane; settings: cho; also: in other assays of this panel Not Active means under 50% inhibition at 10 µM
[2] = DRUGMATRIX: GABAA, Muscimol, Central radioligand binding (ligand: [3H] Muscimol); assay type: cell membranes, Rattus norvegicus, Wistar, Brain, Membrane; settings: Not Active = under 50% inhibition at 10 µM
[3] = DRUGMATRIX: Sodium/nucleoside co-transporter radioligand binding (ligand: nitrobenzylthioinosine); assay type: cell membranes, Cavia porcellus, Dunkin-Hartley, Cerebral cortex, Membrane; settings: Not Active = under 50% inhibition at 10 µM
[4] = biological target: T1, Neuropeptide Y receptor type 1 (Homo sapiens, UniProt P25929); assay type: cell membranes, Membrane; settings: sk-n-mc; also: in other assays of this panel Not Active means under 50% inhibition at 10 µM
T1 sequence (P25929 whole entry): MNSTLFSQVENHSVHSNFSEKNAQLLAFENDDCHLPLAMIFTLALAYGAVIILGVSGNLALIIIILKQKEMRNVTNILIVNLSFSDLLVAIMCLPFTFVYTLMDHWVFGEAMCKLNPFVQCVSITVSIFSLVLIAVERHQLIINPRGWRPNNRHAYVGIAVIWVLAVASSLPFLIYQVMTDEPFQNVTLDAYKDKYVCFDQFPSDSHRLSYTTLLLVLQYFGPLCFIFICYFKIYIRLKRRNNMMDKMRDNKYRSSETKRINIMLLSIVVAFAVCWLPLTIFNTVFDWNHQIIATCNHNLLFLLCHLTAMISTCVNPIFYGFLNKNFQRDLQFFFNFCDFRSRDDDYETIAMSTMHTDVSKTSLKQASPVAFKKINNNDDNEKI

[5] = biological target: D(3) dopamine receptor (Homo sapiens, UniProt P35462); experiment: DRUGMATRIX: Dopamine D3 radioligand binding (ligand: [3H] Spiperone); assay type: cell membranes, CHO, Membrane; settings: cho
[6] = biological target: Beta-2 adrenergic receptor (Homo sapiens, UniProt P07550); experiment: DRUGMATRIX: Adrenergic beta2 radioligand binding (ligand: [3H] CGP-12177); assay type: cell membranes, CHO, Membrane; settings: cho; Not Active = under 50% inhibition at 10 µM
[7] = biological target: T2, Nitric oxide synthase, inducible (Mus musculus, UniProt P29477); set-up: species or system Escherichia coli;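 also: inhibition of iNOS enzyme activity measured with L-arginine as substrate; in other assays of this panel Not Active means under 50% inhibition at 10 µM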
T2 sequence (P29477 whole entry): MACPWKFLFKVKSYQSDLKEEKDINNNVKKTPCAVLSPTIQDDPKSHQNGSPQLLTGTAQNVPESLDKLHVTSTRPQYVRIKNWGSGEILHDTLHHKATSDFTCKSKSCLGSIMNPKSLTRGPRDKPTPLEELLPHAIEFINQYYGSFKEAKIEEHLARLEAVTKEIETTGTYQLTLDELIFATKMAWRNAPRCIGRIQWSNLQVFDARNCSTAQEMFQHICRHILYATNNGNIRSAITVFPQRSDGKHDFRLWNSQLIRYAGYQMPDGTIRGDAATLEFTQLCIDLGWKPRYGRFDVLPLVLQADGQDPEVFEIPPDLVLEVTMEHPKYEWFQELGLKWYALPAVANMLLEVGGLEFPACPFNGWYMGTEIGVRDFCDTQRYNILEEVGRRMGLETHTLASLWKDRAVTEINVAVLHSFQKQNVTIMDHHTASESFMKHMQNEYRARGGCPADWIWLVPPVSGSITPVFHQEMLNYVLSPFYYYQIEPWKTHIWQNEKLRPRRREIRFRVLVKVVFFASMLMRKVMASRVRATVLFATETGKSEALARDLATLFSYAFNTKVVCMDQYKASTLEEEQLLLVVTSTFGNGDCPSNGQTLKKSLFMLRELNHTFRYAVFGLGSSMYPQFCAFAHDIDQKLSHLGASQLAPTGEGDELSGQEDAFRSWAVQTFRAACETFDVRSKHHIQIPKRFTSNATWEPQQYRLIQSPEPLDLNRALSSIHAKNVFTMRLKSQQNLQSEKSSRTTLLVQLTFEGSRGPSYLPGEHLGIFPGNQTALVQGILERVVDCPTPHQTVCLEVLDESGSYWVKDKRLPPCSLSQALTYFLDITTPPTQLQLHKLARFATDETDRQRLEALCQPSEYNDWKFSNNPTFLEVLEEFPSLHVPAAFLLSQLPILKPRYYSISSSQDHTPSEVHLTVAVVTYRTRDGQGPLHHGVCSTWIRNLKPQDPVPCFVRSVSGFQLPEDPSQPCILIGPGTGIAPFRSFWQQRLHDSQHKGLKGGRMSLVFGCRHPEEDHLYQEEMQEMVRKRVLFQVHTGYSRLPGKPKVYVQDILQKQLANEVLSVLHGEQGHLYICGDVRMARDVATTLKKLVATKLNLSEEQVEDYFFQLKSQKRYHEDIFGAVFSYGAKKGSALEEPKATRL

[8] = biological target: T3, Thromboxane-A synthase (Homo sapiens, UniProt P24557); experiment: biochemical; assay type: tissue-based, Platelet; settings: platelet;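 also: enzyme inhibition assay with PGH2 supplied as substrate; in other assays of this panel Not Active means under 50% inhibition at 10 µM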
T3 sequence (P24557 whole entry): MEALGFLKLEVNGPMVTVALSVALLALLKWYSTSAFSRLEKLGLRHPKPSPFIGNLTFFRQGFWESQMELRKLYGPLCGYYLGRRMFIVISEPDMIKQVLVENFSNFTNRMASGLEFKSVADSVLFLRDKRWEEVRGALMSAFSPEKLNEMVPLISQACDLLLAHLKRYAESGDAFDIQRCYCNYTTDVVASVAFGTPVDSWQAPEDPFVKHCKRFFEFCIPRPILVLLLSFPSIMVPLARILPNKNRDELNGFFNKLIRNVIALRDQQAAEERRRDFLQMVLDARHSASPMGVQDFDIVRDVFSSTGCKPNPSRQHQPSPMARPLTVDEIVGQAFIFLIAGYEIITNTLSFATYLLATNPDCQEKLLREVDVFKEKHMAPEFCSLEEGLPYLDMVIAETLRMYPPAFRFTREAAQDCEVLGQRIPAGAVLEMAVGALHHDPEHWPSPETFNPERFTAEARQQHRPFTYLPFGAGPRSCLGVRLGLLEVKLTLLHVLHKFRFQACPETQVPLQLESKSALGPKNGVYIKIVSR

Beta-2 adrenergic receptor, sequence (P07550 whole entry): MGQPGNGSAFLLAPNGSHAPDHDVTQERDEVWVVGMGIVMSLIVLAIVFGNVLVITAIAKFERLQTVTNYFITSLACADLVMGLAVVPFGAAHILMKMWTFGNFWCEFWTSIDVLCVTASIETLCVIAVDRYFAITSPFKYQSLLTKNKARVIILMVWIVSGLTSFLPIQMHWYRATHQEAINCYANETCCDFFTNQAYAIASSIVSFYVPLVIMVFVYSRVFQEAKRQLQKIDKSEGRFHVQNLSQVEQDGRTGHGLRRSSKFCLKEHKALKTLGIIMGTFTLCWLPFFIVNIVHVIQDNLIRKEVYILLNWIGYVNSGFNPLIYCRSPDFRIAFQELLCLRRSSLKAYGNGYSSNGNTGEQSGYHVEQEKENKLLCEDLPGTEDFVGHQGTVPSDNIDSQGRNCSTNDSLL
Substance-P receptor, sequence (P25103 whole entry): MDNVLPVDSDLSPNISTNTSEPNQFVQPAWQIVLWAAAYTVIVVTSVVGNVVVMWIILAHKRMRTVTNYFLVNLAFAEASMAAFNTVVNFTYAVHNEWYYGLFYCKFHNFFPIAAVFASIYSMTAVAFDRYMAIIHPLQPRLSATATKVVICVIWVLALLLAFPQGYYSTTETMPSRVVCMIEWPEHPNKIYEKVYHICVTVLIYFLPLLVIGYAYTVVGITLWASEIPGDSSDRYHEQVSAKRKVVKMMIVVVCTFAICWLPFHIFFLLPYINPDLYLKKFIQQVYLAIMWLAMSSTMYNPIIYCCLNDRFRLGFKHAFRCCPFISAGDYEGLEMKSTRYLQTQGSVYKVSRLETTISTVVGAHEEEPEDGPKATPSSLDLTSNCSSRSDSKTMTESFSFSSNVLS
D(3) dopamine receptor, sequence (P35462 whole entry): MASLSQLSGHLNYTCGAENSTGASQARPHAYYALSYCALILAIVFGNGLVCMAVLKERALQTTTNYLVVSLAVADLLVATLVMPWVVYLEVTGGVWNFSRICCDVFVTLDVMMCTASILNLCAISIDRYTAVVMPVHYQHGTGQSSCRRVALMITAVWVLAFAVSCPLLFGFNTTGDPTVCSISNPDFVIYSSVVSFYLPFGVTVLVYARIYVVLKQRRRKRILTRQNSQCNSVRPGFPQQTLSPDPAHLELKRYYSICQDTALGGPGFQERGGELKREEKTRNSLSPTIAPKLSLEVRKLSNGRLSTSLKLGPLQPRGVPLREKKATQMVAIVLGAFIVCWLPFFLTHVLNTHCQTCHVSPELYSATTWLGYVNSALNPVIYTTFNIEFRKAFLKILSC

CN(Cc1cnc2nc(N)nc(N)c2n1)c1ccc(C(=O)N[C@@H](CCC(=O)O)C(=O)O)cc1 [METHOTREXATE]
Not Active: IC50 [1] | IC50 [2] | Ki [2] | IC50 [3] | Ki [3] | IC50 [4] | IC50 [5] | IC50 [6] | IC50 [7] | IC50 [8]

COC(=O)c1ccccc1O [METHYL SALICYLATE]
Not Active: IC50 [1] | IC50 [2] | Ki [2] | IC50 [3] | Ki [3] | IC50 [4] | IC50 [5] | IC50 [6] | IC50 [7] | IC50 [8]

COc1ccc2cc(CCC(C)=O)ccc2c1 [NABUMETONE]
Not Active: IC50 [1] | IC50 [2] | Ki [2] | IC50 [3] | Ki [3] | IC50 [4] | IC50 [5] | IC50 [6] | IC50 [7] | IC50 [8]

O=C(O)c1cccnc1 [NIACIN]
Not Active: IC50 [1] | IC50 [2] | Ki [2] | IC50 [3] | Ki [3] | IC50 [4] | IC50 [5] | IC50 [6] | IC50 [7] | IC50 [8]

CNC(=C[N+](=O)[O-])NCCSCc1csc(CN(C)C)n1 [NIZATIDINE]
Not Active: IC50 [1] | IC50 [2] | Ki [2] | IC50 [3] | Ki [3] | IC50 [4] | IC50 [5] | IC50 [6] | IC50 [7] | IC50 [8]

C[C@]12C/C(=C/O)C(=O)C[C@@H]1CC[C@@H]1[C@@H]2CC[C@@]2(C)[C@H]1CC[C@]2(C)O [OXYMETHOLONE]
Not Active: IC50 [1] | IC50 [2] | Ki [2] | IC50 [3] | Ki [3] | IC50 [4] | IC50 [5] | IC50 [6] | IC50 [7] | IC50 [8]

CC(C)(CO)C(O)C(=O)NCCCO (stereo not given) [PANTHENOL]
Not Active: IC50 [1] | IC50 [2] | Ki [2] | IC50 [3] | Ki [3] | IC50 [4] | IC50 [5] | IC50 [6] | IC50 [7] | IC50 [8]

COc1ccc(Cc2nccc3cc(OC)c(OC)cc23)cc1OC [PAPAVERINE]
Not Active: IC50 [1] | IC50 [2] | Ki [2] | IC50 [3] | Ki [3] | IC50 [4] | IC50 [5] | IC50 [6] | IC50 [7] | IC50 [8]

OCCN1CCN(CCCN2c3ccccc3Sc3ccc(Cl)cc32)CC1 [PERPHENAZINE]
Not Active: IC50 [1] | IC50 [2] | Ki [2] | IC50 [3] | Ki [3] | IC50 [4] | IC50 [5] | IC50 [6] | IC50 [7] | IC50 [8]

CCCCC1C(=O)N(c2ccccc2)N(c2ccccc2)C1=O [PHENYLBUTAZONE]
Not Active: IC50 [1] | IC50 [2] | Ki [2] | IC50 [3] | Ki [3] | IC50 [4] | IC50 [5] | IC50 [6] | IC50 [7] | IC50 [8]

Cc1cccc(Nc2cc(Cl)nc(SCC(=O)O)n2)c1C [PIRINIXIC ACID]
Not Active: IC50 [1] | IC50 [2] | Ki [2] | IC50 [3] | Ki [3] | IC50 [4] | IC50 [5] | IC50 [6] | IC50 [7] | IC50 [8]

CC[C@H](C)C(=O)O[C@H]1C[C@H](O)C=C2C=C[C@H](C)[C@H](CC[C@@H](O)C[C@@H](O)CC(=O)O)[C@H]21 [PRAVASTATIN]
Not Active: IC50 [1] | IC50 [2] | Ki [2] | IC50 [3] | Ki [3] | IC50 [4] | IC50 [5] | IC50 [6] | IC50 [7] | IC50 [8]

CC(C)(Sc1cc(C(C)(C)C)c(O)c(C(C)(C)C)c1)Sc1cc(C(C)(C)C)c(O)c(C(C)(C)C)c1 [PROBUCOL]
Not Active: IC50 [1] | IC50 [2] | Ki [2] | IC50 [3] | Ki [3] | IC50 [4] | IC50 [5] | IC50 [6] | IC50 [7] | IC50 [8]
